Results published in the NIST ThermoML archive (doi:10.1021/je1012857).

Experiment: xn = mol fraction of the nth substance listed
Details: 101 kPa, Liquid; for speed of sound: Sing-around technique in a fixed-path interferometer; for viscosity: Capillary tube (Ostwald / Ubbelohde) method

NCCN [ethane-1,2-diamine] + CC(C)O
Details | mass density [kg/m3] | speed of sound [m/s] | viscosity [mPa·s]
293.15 K, x1 = 0.0557 | 793.696 | 1187.2 | –
293.15 K, x1 = 0.1036 | 800.705 | 1213.8 | –
293.15 K, x1 = 0.156 | 807.902 | 1241.5 | –
293.15 K, x1 = 0.2011 | 813.922 | 1265.8 | –
293.15 K, x1 = 0.2548 | 820.862 | 1295.1 | –
293.15 K, x1 = 0.3018 | 826.514 | 1320.2 | –
293.15 K, x1 = 0.3892 | 836.546 | 1366.4 | –
293.15 K, x1 = 0.5109 | 849.474 | 1430.5 | –
293.15 K, x1 = 0.605 | 858.745 | 1478.9 | –
293.15 K, x1 = 0.6988 | 868.4 | 1530.6 | –
293.15 K, x1 = 0.7969 | 878.278 | 1584.3 | –
293.15 K, x1 = 0.8369 | 881.835 | 1605.3 | –
293.15 K, x1 = 0.8931 | 887.269 | 1635.6 | –
293.15 K, x1 = 0.9409 | 892.34 | 1662.9 | –
298.15 K, x1 = 0.0557 | 789.425 | 1169.4 | 2.034
298.15 K, x1 = 0.1036 | 796.388 | 1195.9 | 2.017
298.15 K, x1 = 0.156 | 803.523 | 1223.4 | 1.997
298.15 K, x1 = 0.2011 | 809.506 | 1247.6 | 1.978
298.15 K, x1 = 0.2548 | 816.397 | 1276.6 | 1.962
298.15 K, x1 = 0.3018 | 822.019 | 1301.6 | 1.936
298.15 K, x1 = 0.3892 | 832.023 | 1347.5 | 1.886
298.15 K, x1 = 0.5109 | 844.925 | 1410.9 | 1.796
298.15 K, x1 = 0.605 | 854.173 | 1458.9 | 1.725
298.15 K, x1 = 0.6988 | 863.796 | 1510 | 1.637
298.15 K, x1 = 0.7969 | 873.662 | 1563.2 | 1.543
298.15 K, x1 = 0.8369 | 877.194 | 1583.7 | 1.511
298.15 K, x1 = 0.8931 | 882.613 | 1613.9 | 1.469
298.15 K, x1 = 0.9409 | 887.669 | 1640.7 | 1.438
303.15 K, x1 = 0.0557 | 785.1 | 1151.7 | 1.761
303.15 K, x1 = 0.1036 | 792.016 | 1178 | 1.746
303.15 K, x1 = 0.156 | 799.108 | 1205.3 | 1.733
303.15 K, x1 = 0.2011 | 805.044 | 1229.4 | 1.718
303.15 K, x1 = 0.2548 | 811.904 | 1258.2 | 1.698
303.15 K, x1 = 0.3018 | 817.496 | 1283 | 1.675
303.15 K, x1 = 0.3892 | 827.475 | 1328.5 | 1.629
303.15 K, x1 = 0.5109 | 840.354 | 1391.5 | 1.558
303.15 K, x1 = 0.605 | 849.588 | 1439 | 1.496
303.15 K, x1 = 0.6988 | 859.186 | 1489.5 | 1.429
303.15 K, x1 = 0.7969 | 869.028 | 1542.1 | 1.357
303.15 K, x1 = 0.8369 | 872.546 | 1562.4 | 1.331
303.15 K, x1 = 0.8931 | 877.945 | 1592.1 | 1.298
303.15 K, x1 = 0.9409 | 882.985 | 1618.7 | 1.271
308.15 K, x1 = 0.0557 | 780.72 | 1134 | 1.555
308.15 K, x1 = 0.1036 | 787.599 | 1160.1 | 1.543
308.15 K, x1 = 0.156 | 794.649 | 1187.3 | 1.528
308.15 K, x1 = 0.2011 | 800.552 | 1211.2 | 1.516
308.15 K, x1 = 0.2548 | 807.374 | 1239.8 | 1.497
308.15 K, x1 = 0.3018 | 812.943 | 1264.5 | 1.48
308.15 K, x1 = 0.3892 | 822.898 | 1309.7 | 1.44
308.15 K, x1 = 0.5109 | 835.76 | 1372.1 | 1.375
308.15 K, x1 = 0.605 | 844.983 | 1419.1 | 1.322
308.15 K, x1 = 0.6988 | 854.563 | 1469.1 | 1.266
308.15 K, x1 = 0.7969 | 864.38 | 1521.1 | 1.205
308.15 K, x1 = 0.8369 | 867.885 | 1541.2 | 1.183
308.15 K, x1 = 0.8931 | 873.264 | 1570.6 | 1.152
308.15 K, x1 = 0.9409 | 878.288 | 1596.8 | 1.129
313.15 K, x1 = 0.0557 | 776.266 | 1116.4 | –
313.15 K, x1 = 0.1036 | 783.114 | 1142.2 | –
313.15 K, x1 = 0.156 | 790.129 | 1169.4 | –
313.15 K, x1 = 0.2011 | 796.005 | 1193.2 | –
313.15 K, x1 = 0.2548 | 802.798 | 1221.6 | –
313.15 K, x1 = 0.3018 | 808.346 | 1246.1 | –
313.15 K, x1 = 0.3892 | 818.281 | 1291.2 | –
313.15 K, x1 = 0.5109 | 831.131 | 1353.4 | –
313.15 K, x1 = 0.605 | 840.349 | 1399.4 | –
313.15 K, x1 = 0.6988 | 849.909 | 1449.1 | –
313.15 K, x1 = 0.7969 | 859.706 | 1500.5 | –
313.15 K, x1 = 0.8369 | 863.196 | 1520.3 | –
313.15 K, x1 = 0.8931 | 868.56 | 1549.4 | –
313.15 K, x1 = 0.9409 | 873.569 | 1575.4 | –

NCCN [ethane-1,2-diamine] + CCCCO
Details | mass density [kg/m3] | speed of sound [m/s] | viscosity [mPa·s]
293.15 K, x1 = 0.0528 | 815.585 | 1279.7 | –
293.15 K, x1 = 0.1135 | 822.116 | 1302.1 | –
293.15 K, x1 = 0.1488 | 825.769 | 1315.9 | –
293.15 K, x1 = 0.214 | 832.273 | 1341.7 | –
293.15 K, x1 = 0.2602 | 836.674 | 1360.5 | –
293.15 K, x1 = 0.3286 | 842.718 | 1387.1 | –
293.15 K, x1 = 0.3985 | 848.216 | 1414.5 | –
293.15 K, x1 = 0.5036 | 856.28 | 1456.5 | –
293.15 K, x1 = 0.5965 | 863.365 | 1494.7 | –
293.15 K, x1 = 0.7081 | 872.153 | 1543.9 | –
293.15 K, x1 = 0.7931 | 879.359 | 1584.7 | –
293.15 K, x1 = 0.8504 | 884.315 | 1613.6 | –
293.15 K, x1 = 0.8979 | 888.772 | 1639.1 | –
293.15 K, x1 = 0.936 | 892.567 | 1660.5 | –
298.15 K, x1 = 0.0528 | 811.698 | 1262.9 | 2.609
298.15 K, x1 = 0.1135 | 818.144 | 1285 | 2.591
298.15 K, x1 = 0.1488 | 821.746 | 1298.6 | 2.584
298.15 K, x1 = 0.214 | 828.164 | 1324.3 | 2.53
298.15 K, x1 = 0.2602 | 832.509 | 1342.9 | 2.484
298.15 K, x1 = 0.3283 | – | – | 2.412
298.15 K, x1 = 0.3286 | 838.245 | 1368.8 | –
298.15 K, x1 = 0.3985 | 843.943 | 1396.3 | 2.327
298.15 K, x1 = 0.5036 | 851.943 | 1437.7 | 2.184
298.15 K, x1 = 0.5965 | 858.974 | 1475.5 | 2.03
298.15 K, x1 = 0.7081 | 867.696 | 1523.9 | 1.842
298.15 K, x1 = 0.7931 | 874.839 | 1564.1 | 1.697
298.15 K, x1 = 0.8504 | 879.75 | 1592.5 | 1.604
298.15 K, x1 = 0.8979 | 884.168 | 1617.5 | 1.538
298.15 K, x1 = 0.936 | 887.932 | 1638.7 | 1.481
303.15 K, x1 = 0.0528 | 807.785 | 1245.9 | 2.298
303.15 K, x1 = 0.1135 | 814.153 | 1267.9 | 2.3
303.15 K, x1 = 0.1488 | 817.703 | 1281.4 | 2.292
303.15 K, x1 = 0.214 | 824.038 | 1306.8 | 2.245
303.15 K, x1 = 0.2602 | 828.329 | 1325.3 | 2.213
303.15 K, x1 = 0.3283 | – | – | 2.147
303.15 K, x1 = 0.3286 | 833.896 | 1350.9 | –
303.15 K, x1 = 0.3985 | 839.656 | 1378.1 | 2.071
303.15 K, x1 = 0.5036 | 847.599 | 1419.1 | 1.942
303.15 K, x1 = 0.5965 | 854.57 | 1456.3 | 1.813
303.15 K, x1 = 0.7081 | 863.224 | 1504 | 1.648
303.15 K, x1 = 0.7931 | 870.306 | 1543.5 | 1.531
303.15 K, x1 = 0.8504 | 875.173 | 1571.4 | 1.448
303.15 K, x1 = 0.8979 | 879.552 | 1596.1 | 1.381
303.15 K, x1 = 0.936 | 883.288 | 1616.8 | 1.334
308.15 K, x1 = 0.0528 | 803.849 | 1228.5 | 2.001
308.15 K, x1 = 0.1135 | 810.137 | 1250.7 | 2.009
308.15 K, x1 = 0.1488 | 813.64 | 1264.3 | 1.995
308.15 K, x1 = 0.214 | 819.892 | 1289.5 | 1.954
308.15 K, x1 = 0.2602 | 824.133 | 1307.8 | 1.923
308.15 K, x1 = 0.3283 | – | – | 1.866
308.15 K, x1 = 0.3286 | 829.828 | 1333.6 | –
308.15 K, x1 = 0.3985 | 835.352 | 1360 | 1.798
308.15 K, x1 = 0.5036 | 843.235 | 1400.4 | 1.697
308.15 K, x1 = 0.5965 | 850.157 | 1437.1 | 1.601
308.15 K, x1 = 0.7081 | 858.739 | 1484.2 | 1.471
308.15 K, x1 = 0.7931 | 865.762 | 1523 | 1.377
308.15 K, x1 = 0.8504 | 870.584 | 1550.5 | 1.314
308.15 K, x1 = 0.8979 | 874.924 | 1574.8 | 1.25
308.15 K, x1 = 0.936 | 878.628 | 1595.3 | 1.198
313.15 K, x1 = 0.0528 | 799.876 | 1210.7 | –
313.15 K, x1 = 0.1135 | 806.088 | 1233.6 | –
313.15 K, x1 = 0.1488 | 809.548 | 1247.2 | –
313.15 K, x1 = 0.214 | 815.723 | 1272.3 | –
313.15 K, x1 = 0.2602 | 819.91 | 1290.4 | –
313.15 K, x1 = 0.3286 | 825.879 | 1315.8 | –
313.15 K, x1 = 0.3985 | 831.025 | 1341.9 | –
313.15 K, x1 = 0.5036 | 838.849 | 1381.7 | –
313.15 K, x1 = 0.5965 | 845.718 | 1418.1 | –
313.15 K, x1 = 0.7081 | 854.232 | 1464.4 | –
313.15 K, x1 = 0.7931 | 861.194 | 1502.7 | –
313.15 K, x1 = 0.8504 | 865.971 | 1529.7 | –
313.15 K, x1 = 0.8979 | 870.277 | 1553.1 | –
313.15 K, x1 = 0.936 | 873.95 | 1573.7 | –
